The values below come from US20120115896A1, “ISOGENIC HUMAN CELL LINES COMPRISING MUTATED CANCER ALLELES AND PROCESS USING THE CELL LINES” (priority 2008, published 2012).

The structures appear in SMILES notation. Read-outs that look alike come from different tables or passages of the source.

Test [1] has as its system DLD-1 colorectal cancer cells and derivative clones (DKO-1, DKO-3, DKO-4, PIK3CA WT/mutant). Put plainly: Viability (ATP assay) of DLD-1 cells and isogenic KRAS / PIK3CA derivative clones.
Protocol: (§4) Results are expressed as percent of viability compared to cells treated with DMSO only ('control') and represent mean±SD of at least three independent observations.
(§5) After serial dilutions, 100 μl of drugs in serum free medium were added to cells with a multichannel pipette. Vehicle and medium-only containing wells were added as controls. Plates were incubated at 37° C. in 5% CO2 for 96 h, after which cell viability was assessed by ATP content using the CellTiter-Glo® Luminescent Assay (Promega Madison, Wis.).
Test [2] concerns phosphorylation of p70S6K, RpS6, AKT and MAPK in hTERT-HME1 WT and KI cells. The test can be described thus: Biochemical effects of everolimus: immunoblot and ELISA of phospho-proteins. Format: cell-based, human. The following applies: for levels of phospho-MAPK: FIG. 16E. The protocol: (A, E) After 30 minutes' treatment with everolimus 500 nM, cells of the indicated genotype were lysed and immunoblotted with the anti-phospho-P70S6K, totalP70S6K, phospho-MAPK and total MAPK antibodies (B, C, D) The same lysates were also used for ELISA measurements of total AKT, phosphoAKT (Thr308), phosphoAKT (Ser473), total RpS6 and phosphoRpS6 levels. Numbers indicate the ratio of phosphorylated protein related to total protein levels and are normalized respect to the untreated (NT) hTERT-HME1 WT cells. DKI, Double Knock-In cells carrying both PIK3CA H1047R and KRAS G13D alleles.
(§1) SDS PAGE was performed using Invitrogen Precasted gels (Invitrogen Carlsbad, Calif.); western blotting transfer onto Hybond-C Extra membranes (Amersham, Amersham Biosciences, Uppsala, Sweden) was done following standard methods. The primary antibodies used for immunoblotting were: Anti-AKT (Cell Signaling, Technology, Danvers, Mass.); Anti-phospho-AKT S473 (Cell Signaling, Technology, Danvers, Mass.); Anti-Actin and Anti-Vinculin (Sigma-Aldrich, St. Louis, Mo.); Phospho-p44/42 Map kinase (Thr202/Tyr204) (Cell Signaling, Technology, Danvers, Mass.); Anti-phospho-EGFR Receptor (Tyr 1068) and Anti EGFR Receptor (Cell Signaling Technology, Danvers, Mass.).
(In general: Immunoblotting shows a protein as a band on a membrane.)

Test [3] deals with phosphorylation of p70S6K, RpS6, AKT and MAPK in HCT 116 and KRAS WT/- HKe-3 cells. The description is as above. The class given is cell-based, human. The following applies: everolimus 500 nM, 30 minutes. The protocol: (A, D) After 30 minutes'treatment with everolimus 500 nM, HCT 116 parental cells and its derivative KRAS WT/-HKe-3 clone were lysed and immunoblotted with the anti-phospho-P70S6K, totalP70S6K, phospho-MAPK and total MAPK (B, C, E) The same lysates were used also for ELISA measurements of total AKT, phosphoAKT (Thr308), phosphoAKT (Ser473), total RpS6 and phosphoRpS6 levels. Numbers indicate the ratio of phosphorylated protein related to total protein levels and are normalized respect to the untreated (NT) HCT 116 cells.
as §1

Test [4] concerns hTERT-HME1 DKI cells carrying PIK3CA (H1047R) and EGFR (delE746-A750).
Test [5] has as its system hTERT-HME1 WT, PIK3CA E545K and H1047R KI cells. The test can be described thus: CFSE time-course of cell divisions by flow cytometry. The conditions noted are these: everolimus 500 nM, 7 days. The class given is cell-based, human. The protocol:
(A) CFSE-labelled cells were analyzed by flow cytometry at the indicated time-points (top panels). The maximum fluorescence intensity for all samples was recorded at day 0 (depicted in filled black). […] (B) Cells of the indicated genotype were incubated with everolimus 500 nM for 48 h, after which cell cycle was analyzed by flow cytometry. No increase of the subG1 apoptotic fraction of cells was observed upon treatment. Representative data from 3 independent experiments are shown.
For time-course experiments, on the initial day hTERT-HME1 cells were labelled with 3 μM CFSE (5-(and -6)-carboxyfluorescein diacetate, succinimidyl ester, Invitrogen C1157, Milan, Italy) in PBS in the dark for 30 minutes. After washing and recording baseline fluorescence, cells were plated in media containing 1% FBS and 2 ng/mL EGF, and treatment with everolimus was initiated, replenishing the drug on a daily basis. For cell cycle analysis, trypsinized cells were washed with PBS and cell nuclei DNA were stained with propidium iodide (PI) for at least 120 minutes using a commercial kit (DNA con 3, Consul T.S., Orbassano, Italy).
All fluorescence levels were detected by flow cytometry on a FACSCalibur (Becton Dickinson, Milan, Italy) and analyzed using CellQuest software. The number of events collected for each sample varied between 15,000 and 50,000. After doublets exclusion, an extended analysis of the DNA content and calculations of the percentage of cells in each phase of the cell cycle were performed on ModFit Lt software (Verity Software House, Topsham, Me.).

Test [6] relates to HKe-3 (HCT116-derivative KRAS WT clone) cells. The test can be described thus: Proliferation under everolimus (72 hours) of cells infected with control or KRASG13D lentivirus. The class given is cell-based, human. The following applies: KRAS G13D lentivirus, FIG. 17A. The protocol: (§2) Effect of everolimus (72 hours) on proliferation of HKe-3 (HCT116-derivative KRAS WT clone) (A) and ME-180 (B) cells infected with control or KRASG13D lentivirus.
(§3) The present inventors transduced HCT116-derivative clones that had only the KRAS WT allele (HKe-3), and the […] cancer cell line ME-180 (carrying PIK3CA E545K mutant and KRAS WT) with a lentiviral vector encoding for KRAS G13D cDNA.

The next test concerns ME-180 cells. Described as above. Format: cell-based, human. The following applies: KRAS G13D lentivirus, FIG. 17B. The procedure:
as §2, §3

The subject of test [7] is HCT 116 colorectal cancer cells and derivative clones (HKh-2, HKe-3, HK2-6, PIK3CA WT/mutant). The test can be described thus: Viability (ATP assay) of HCT 116 cells and isogenic KRAS / PIK3CA derivative clones.
Protocol: as §4, §5

Consider `CO[C@H]1C[C@@H]2CC[C@@H](C)[C@@](O)(O2)C(=O)C(=O)N2CCCC[C@H]2C(=O)O[C@H]([C@H](C)C[C@@H]2CC[C@@H](OCCO)[C@H](OC)C2)CC(=O)[C@H](C)/C=C(\C)[C@@H](O)[C@@H](OC)C(=O)[C@H](C)C[C@H](C)/C=C/C=C/C=C/1C` [everolimus, Everolimus], for which the “response of DLD-1 clones knock-out for the mutated KRAS D13 allele versus parental / DKO-1” value in test [1] (DKO-3 and DKO-4, FIG. 7C) was “more sensitive to everolimus”. Also, in test [1] (FIG. 14B), the “response of DLD-1 cells knock-out for the mutated PIK3CA K545 allele” value was “as sensitive to everolimus as either the corresponding parental cells or a clone retaining only the PIK3CA mutated allele”. Besides, the “levels of phospho-MAPK” value in test [2] (KRAS G13D mutated cells) was “decreased”; in test [2] (WT cells and PIK3CA H1047R mutated cells), “essentially unchanged”. Moreover, the phospho-AKT entry in test [2] (all genotypes, everolimus 500 nM, 30 minutes, FIG. 16C, D) is “increase”. For the same compound, in test [2] (everolimus 500 nM, 30 minutes, FIG. 16A), the p70S6K phosphorylation entry is on record as “abrogated”. In test [2] (everolimus 500 nM, 30 minutes, FIG. 16B), the “activated phospho-RpS6 levels” value is on record as “decrease”. Also, the “MAPK phosphorylation in drug treated HKe-3 cells compared to parental” value in test [3] (FIG. 15A) is recorded as “higher level of MAPK phosphorylation”. For the same compound, the “levels of activated RpS6” value in test [3] (FIG. 15E) is “decreased accordingly”. Further, in test [3] (parental and KRAS D13 deleted cells, FIG. 15D), the “phosphorylation of p70S6K” value is given as “abrogated”. The “ΔKI PIK3CA + EGFR” value turned out to be 0 in test [4] (Log(M) −5.70); 1.38 in test [4] (Log(M) −6.70); 0 in test [4] (Log(M) −7.70); 0.68 in test [4] (Log(M) −8.70); 0 in test [4] (Log(M) −9.70). Also, the entries for the “slowing of cell growth (CFSE)” value in test [5] (PIK3CA E545K), in test [5] (PIK3CA H1047R) and in test [5] (WT cells) were “less pronounced”, “particularly evident” and “only minimal”, respectively. Also, the “response after (re-)introduction of mutated KRAS versus control vector” value in test [6] was “decreased response to the antiproliferative effects”. In addition, in the test on ME-180 cells, the “response after introduction of mutated KRAS versus control vector” value was “decreased response to the antiproliferative effects”. For the same compound, the “response of HCT 116 parental and isogenic cells carrying mutated KRAS” value in test [7] (FIG. 7B) is “equally resistant”. The “response of HCT 116 derivative cells retaining only the KRAS WT allele” value in test [7] (HKh-2 and HKe-3, FIG. 7B) is reported as “sensitive to everolimus”. Also, the “response of HCT 116 cells in which PIK3CA H1047R had been deleted” value in test [7] (all clones retain mutated KRAS, FIG. 14A) is listed as “non-responsive to everolimus”.
